A short description of series [1]: Steady-state plasma tramiprosate pharmacokinetics, expanded access subject, TID and QID. The series is classed as in vivo, human. The following applies: BID vs TID vs QID, 265 mg per dose. The source says: The steady state pharmacokinetics of the TID and QID dosing regimen in the patient has been assayed for area under the curve (AUC) and maximum concentration (Cmax) of plasma tramiprosate (the active form of ALZ-801) and compared to BID dosing values in a population of patients in a Phase 2 human clinical trial of ALZ-801. Once the patient reaches steady state on a particular dosing regimen (any time after day 7 of a particular dosing regimen), a blood sample was collected just prior to the administration of a dose of AZL-801 and then again at 1, 2 and 4 hours post-administration of that dose. Plasma was isolated from the sample by centrifugation and the plasma samples were frozen and shipped to a bioanalytical lab for determination of tramiprosate concentrations (active moiety of ALZ-801) and calculation of AUC and Cmax. The values obtained from the plasma were then used to calculate projected brain AUC.

Series [2] has as its system subject with major neurocognitive disorder of the Alzheimer type, APOE4 homozygous. Briefly: Compassionate use study (Expanded Access IND), clinical response and tolerability. Format: in vivo, human. The note with it: n=1. On the procedure: A subject who received a diagnosis of major neurocognitive disorder of the Alzheimer type was treated with ALZ-801 as part of a compassionate use study. The subject was a APOE4 homozygous and had received standard cognitive enhancing medications and was enrolled in a trial of an amyloid immunotherapy agent, but without benefit, and had no treatment options.
The subject was orally administered ALZ-801 at a dose of 265 mg BID for approximately 14 months (61 weeks, 2 days). […] For example, their motor skills improved as they made efforts to brush their teeth, get dressed, and bathe […]. They also were able to hold a phone to their […] and was walking and eating better. They were not able or willing to do the above prior to treatment with 265 mg BID ALZ-801. Further, their mood was noticeably more cheerful and content, and their verbal communication advanced. However, by the later end of the first 12-months of treatment, the improvement in the subject's symptoms plateaued and there was a decline in their cognitive status. They became apathetic, less verbal, and could no longer follow instructions.
At 62 weeks, 6 days of treatment, the dosage of ALZ-801 was increased from 265 mg BID to 265 mg TID. Remarkably, their plateau and decline in cognition ended upon commencement of the 265 mg TID dosage regimen. They were more talkative, happier, and not only completed the tasks they accomplished while on 265 mg BID ALZ-801, but improved beyond that. They understand the context of conversation and behave in a more “normal” or “natural” manner. […] A similar plateau or decline in cognitive status as observed with an ALZ-801 dosage of 265 mg BID began to manifest approximately 12 months after the beginning of the 265 mg TID ALZ-801 dosing. The subject remained on 265 mg TID ALZ-801 for approximately three more months (15 months total) until their dosage was increased to 265 mg QID (four time a day) ALZ-801, which they have maintained for the past seven months. […] Their caretakers have noted that the patient's disposition and alertness has improved, they are more responsive, more cooperative and has improved interaction with the caretakers.

One compound from patent US20250041248A1, “ALZ-801 FOR USE IN TREATING ALZHEIMER'S DISEASE” (Alzheon, Inc., priority 2021, published 2025) can be followed below.

“Also recorded” adds a separate entry of the source.

For the compound `CC(C)[C@H](N)C(=O)NCCCS(=O)(=O)O` [ALZ-801, valyl-3-amino-1-propanesulfonic acid], the “dose proportionality of plasma AUC and Cmax (tramiprosate)” value in series [1] was “dose proportional increases in plasma AUC and Cmax”. Moreover, the “duration of improvement and stabilization before plateau/decline” value in series [2] (oral 265 mg BID) is recorded as “about 58 weeks”. The “tolerability / side effects” value in series [2] (oral 265 mg QID) was “well-tolerated with no associated nausea or noticeable side effects; also recorded: well tolerated”. Further, in series [2] (oral 265 mg TID), the “time to plateau or decline in cognitive status after start of dosing” value is recorded as “approximately 12 months” and the “tolerability / side effects” value is recorded as “without out noticeable side effects; also recorded: well-tolerated”.
